Read-outs that look alike come from different tables or passages of the source.
Assays:
hippocampal astrocytes [1] = assay: Removal of an exogenous glutamate challenge by astrocyte cultures, [Glu]o over time; type: cell-based, rat
Protocol: The bioluminescence method for detection was used for glutamate in solution as described by Fosse et al. (1986) with only minor modifications. The glutamate-specific reagent mixture contained potassium phosphate (pH 7.0) 25 mM, Triton X-100 40 μg/ml, dithiothreitol 100 μM, Myristyl aldehyde 40 μM (Aldrich; Milwaukee, Wis.), β-NAD 2 mM, ADP 250 μM, FMN 2.5 μM, luciferase 40 μg/ml, NAD(P)H:FMN oxidoreductase 400 mU/ml, glutamate dehydrogenase 0.5 mg/ml. All experiments were performed with a Monolight 2010 luminomitor (Analytical Luminescence Lab; Ann Arbor, Mich.).
(§1) For experiments in which [Glu]o concentrations were assessed by the bioluminescence method, cells were maintained in glutamate-depleted medium in the presence or absence of the agonists/antagonist combination of interest. To assess chronic effects, glutamate analogues were applied for 24 hours unless indicated otherwise. After the incubation period, the stimulation media (containing drugs of interest) were aspirated and cells were washed twice with MEM and allowed to remain for 30 to 60 minutes in drug free MEM supplemented with 20 mM glucose prior to taking media samples for glutamate measurements. To assess acute drug effects, untreated cells were washed and the reagent of interest applied in glucose supplemented MEM. Cells were harvested in 0.3 N NaOH and neutralized with 0.3 N HCl. Aliquots were stored in -20° C. for protein and [Glu]i determination. Glutamate standards used for calibration were prepared in MEM (For [Glu]i in 0.15 N NaCl).
To delineate the role of mGluR receptors on [Glu]o levels, hippocampal astrocytes were challenged with 50 μM glutamate and cells that were pretreated with trans-ACPD were compared to control cultures (FIG. 2A). Control astrocytes rapidly remove glutamate from the medium, and after ≈3 hours, [Glu]o stabilized at values to 1 μM. […] Mean values were 0.96±0.1 μM in control astrocytes, as compared to 0.18±0.03 μM in trans-ACPD treated astrocytes.
Glutamate undoubtedly is the endogenous ligand for mGluRs. However, it was necessary to establish whether glutamate itself can induce the modulation in glutamate levels observed, and thus can mimic the modulatory effects observed with ACPD. These studies are difficult since, unlike ACPD, glutamate is also a substrate for the transporter, and therefore, is readily removed. Experiments were carried out in two ways, each yielding similar results. First, cells were preincubated for 24 hours with 100 μM glutamate, then washed and [Glu]o measured in MEM, or secondly, glutamate was directly applied in MEM and changes in [Glu]o were monitored.

dopaminergic neurons = assay: Cell death of dopaminergic neurons induced by glutamate or MPTP; type: cell-based, rat
Protocol: Cell death of dopaminergic neurons induced by glutamate, and the role of glial glutamate transport in protection of cell death at the cellular level were studied as it relates to Parkinson's disease. […] Thus, glutamate concentrations as low as 3-5 μM induced rapid cell death (FIGS. 11 and 12). Glutamate concentrations were also measured in the normal brain. They are typically around 1 μM, below the toxic level for dopaminergic neurons. […] This late onset of glutamate toxicity is compatible with the late onset of Parkinson's disease.

GLT-1 = conditions: cited from earlier work
hippocampal astrocytes [2] = assay: Extracellular glutamate [Glu]o released by astrocyte cultures (bioluminescence); type: cell-based, rat; conditions: for activity at 100 µM: read-out: % of control [Glu]0
hippocampal astrocytes [3] = assay: 3H-D-aspartate (glutamate/aspartate) uptake in astrocytes; type: cell-based, rat; conditions: Rattus norvegicus, Astrocyte; 0.5 mM, 24 hour exposure; average of 25 experiments; read-out: glutamate/aspartate uptake enhanced by
Protocol: Uptake procedures were essentially identical to those previously described (Kimelberg et al. 1989; Ye et al., 1996). Briefly, 5-10 minutes before assessing uptake, astrocytes were washed and kept in a solution containing (in mM): NaCl 122, KCl 3, MgSO4 0.4, KH2 PO4 1.2, NaHCO3 25, D-glucose 10, and CaCl2 1.3, at 37° C., bubbled with 5%/95% CO2 /O2. Then the cells were switched to the above solution supplemented with 0.1 mM D-aspartate and 0.4 μCi/ml ^3 H-D-aspartate. Glutamate/aspartate uptake was determined over a 10 or 30 minutes period and was terminated by three quick washes, twice with ice cold 0.29 M sucrose solution with 10 mM Tris Nitrate, 0.5 mM Ca(NO3)2, (pH 7.40 by NaOH) and then with ice cold PBS. Cells were then harvested after a 30 minute incubation in 0.3 N NaOH solution (37° C.) and ^3 H activity was determined in a liquid scintillation counter (Beckman). Total uptake was normalized to protein content to eliminate variability due to cell number. Protein levels were determined using the bicinchoninic acid (BCA) assay (Pierce; Rockford, Ill.).

[4] = test system: rat hippocampal brain slices; assay: THA-induced glutamate release in acute hippocampal brain sections; type: cell-based; conditions: 400 min pretreatment
Excerpt: This was accomplished using THA, a heteroexchange drug that is also a substrate for the glutamate transporter. For each molecule of THA transported into the cell, one molecule of glutamate is released. Therefore, THA allows the induction of glutamate release.

glial cells = assay: Glial glutamate uptake and extracellular glutamate with MPTP/MPP+ and t-ACPD; type: cell-based
Protocol: The normally low glutamate levels in the brain are established and maintained in glial cells by non-vesicular uptake of glutamate through a Na^+ -dependent transporter (FIG. 14). Once taken up, glutamate can be converted to glutamine and recycled for neurotransmitter synthesis in neurons (FIG. 14). If glial cells in culture are exposed to high glutamate concentrations (e.g., 100 μM), they will remove it from the extracellular space and essentially "detoxify" the neuronal environment. […] Under those conditions, extracellular glutamate levels are elevated to 7 μM (FIG. 16), which is toxic to most surrounding neurons.
Impaired glial glutamate transport may contribute to the loss of dopaminergic neurons in Parkinson's disease. Thus, stimulation of this pathway would be neuroprotective. A drug and its receptor on glial cells was identified that allows enhanced glutamate detoxification. Specifically, trans-ACPD (trans-1-amino-1,3-cyclopentane dicarboxylic acid) (t-ACPD), a group II metabotropic glutamate receptor agonist, enhanced glial glutamate uptake (FIG. 17). It's actions were 2-fold; (i) it enhanced glutamate uptake by up to 80%, and (ii) it decreased non-specific release of glutamate, effectively trapping glutamate inside glial cells. In fact, the release of glutamate decreased to such a large extent that it almost made the transporter rectify, e.g. allowing only influx and preventing outflow of glutamate (FIG. 18). […] Using antibodies and further pharmacological studies, the receptor that is responsible for these effects has been identified as mGluR2/3.
In Parkinson's disease, it is believed that neurons may die of excitotoxic exposure to glutamate. The present invention determined that MPTP directly effects glutamate uptake into astrocytes (FIG. 21, top left). […] This increased release may be sufficient to explain some of the subsequent neurodegeneration.

hippocampal astrocytes [5] = assay: Intracellular glutamate content [Glu]i of astrocytes; type: cell-based, rat; conditions: Rattus norvegicus, Astrocyte, 24 h; highest dose used (1 mM), chronic treatment
Protocol: as §1, with “To assess chronic effects, glutamate analogues were applied for 24 hours unless indicated otherwise.” left out

[6] = 500 μM for 24 hour before 50 μM glutamate challenge

In the case of `N[C@@H](CCC(=O)O)C(=O)O` [glutamate], the “duration of glutamate undershoot” value (hippocampal astrocytes [1]; 100 μM glutamate) is reported as “approximately 10 hours”, the “THA induced glutamate release during undershoot” value (hippocampal astrocytes [1]; 100 μM glutamate several hours before, 200 μM THA) is reported as “induced less glutamate release” and the “[Glu]o undershoot level after glutamate challenge” value (hippocampal astrocytes [1]; 100 μM glutamate, P22 astrocyte culture) is reported as “≈ 0.4 μM”. The IC50 (dopaminergic neurons) was roughly 5 µM, the neuronal cell death (dopaminergic neurons; 0.03 mM) was “neurotoxic to most neurons” and the “susceptibility of neurons to glutamate by age” value (dopaminergic neurons; adult rats (>30 days)) was “highest glutamate sensitivity”. The “glutamate concentrations inducing rapid cell death” value (dopaminergic neurons; rat) was 3 to 5 µM, the “susceptibility of neurons to glutamate by age” value (dopaminergic neurons; young rats) was “relatively insensitive” and the Km (GLT-1) was 2 µM.

For `N[C@@]1(C(=O)O)CC[C@@H](C(=O)O)C1` (relative stereo) [trans-ACPD, trans-1-aminocyclopentane-1,3-dicarboxylic acid], the activity at 100 µM (hippocampal astrocytes [2]; Rattus norvegicus, Astrocyte, 432 h, cells P9, 18 days in vitro, 250 μM agonist) was 46.3 ± 4.3%, the activity at 100 µM (hippocampal astrocytes [2]; Rattus norvegicus, Astrocyte, 432 h, cells P23, 18 days in vitro, 200 μM agonist) was 12.4 ± 1.2% and the activity at 100 µM (hippocampal astrocytes [2]; Rattus norvegicus, Astrocyte, 456 h, cells P21, 19 days in vitro, 100 μM agonist) was 23.1 ± 1.4%. It also gave an activity at 100 µM (hippocampal astrocytes [2]; Rattus norvegicus, Astrocyte, 624 h, cells P15, 26 days in vitro, 100 μM agonist) of 20 ± 6.1%, an activity at 100 µM (hippocampal astrocytes [2]; Rattus norvegicus, Astrocyte, 672 h, cells P2, 28 days in vitro, 500 μM agonist) of 78.2 ± 10.1% and an activity at 100 µM (hippocampal astrocytes [2]; Rattus norvegicus, Astrocyte, cells P0, 60 days in vitro, 100 μM agonist) of 60.6 ± 6.3%. It also gave an activity at 100 µM (hippocampal astrocytes [2]; Rattus norvegicus, Astrocyte, cells P2, 25 days in vitro, 500 μM agonist) of 59.6 ± 10.1%, an activity at 100 µM (hippocampal astrocytes [2]; Rattus norvegicus, Astrocyte, cells P2, 34 days in vitro, 100 μM agonist) of 51.3 ± 5.7% and an activity at 100 µM (hippocampal astrocytes [2]; Rattus norvegicus, Astrocyte, cells P40, 31 days in vitro, 100 μM agonist) of 19.5 ± 2.7%. For the same molecule, the “steady-state [Glu]o after glutamate challenge” value (hippocampal astrocytes [1]; [6]) was 0.18 ± 0.03 µM, the “steady-state [Glu]o lower than in control cultures” value (hippocampal astrocytes [1]; [6]) was 5 fold and the activation at 500 µM (hippocampal astrocytes [3]) was 31 ± 2.7%. For the same molecule, the “reduction of THA-induced glutamate release” value [4] was “≈ 40%”, the “enhancement of glutamate uptake” value (glial cells) was “up to 80%” and the “reduction of extracellular glutamate levels versus control” value (glial cells; neuron-glial cocultures (FIG. 19)) was “up to 100%”.

For `N[C@@]1(C(=O)O)CC[C@@H](C(=O)O)C1` [1S3R-ACPD, (1S,3R)-1-aminocyclopentane-1,3-dicarboxylic acid], the “more effective than 1R3S-ACPD in reducing glutamate release” value (hippocampal astrocytes [2]) was “≈ 100 fold”, the “time to steady-state [Glu]o, acute application” value (hippocampal astrocytes [2]; 50 μM in glutamate-free MEM) was “≈ 2 hours” and the “steady-state [Glu]o, acute application” value (hippocampal astrocytes [2]; 50 μM in glutamate-free, glucose-supplemented MEM) was 0.3 to 0.4 µM. For the same molecule, the “THA-induced glutamate release lower in treated cells” value (hippocampal astrocytes [2]; 100 μM for 24 hours pretreatment, any THA concentration) was 3-5 fold, the “swelling induced glutamate release” value (hippocampal astrocytes [2]; 100 μM, 24 h pretreatment, hypotonic 153 mOsm) was “inhibited swelling induced glutamate release to some extent” and the “preincubation time for maximal effects” value (hippocampal astrocytes [2]; 200 μM) was “≈ 14 hours”. For the same molecule, the “ET50 of attenuation of [Glu]o versus preincubation time” value (hippocampal astrocytes [2]; 200 μM, preincubation 0.5-36 hours) was “≈ 1 hour”, the “order of potency in mimicking ACPD effect on glutamate release” value (hippocampal astrocytes [2]; FIG. 7B) was “S-4CPG>1S3R-ACPD>L-CCG-I>1S3S-ACPD=QA” and the activity at 200 µM (hippocampal astrocytes [2]; Rattus norvegicus, Astrocyte, 14 h, 200 μM, ≈14 hours preincubation, read-out: [Glu]o levels at maximal effect) was less than 30%. It also gave an activity at 100 µM (hippocampal astrocytes [2]; Rattus norvegicus, Astrocyte, 408 h, cells P22, 17 days in vitro, 100 μM agonist) of 17.3 ± 1.2%, an activity at 100 µM (hippocampal astrocytes [2]; Rattus norvegicus, Astrocyte, 408 h, cells P22, 17 days in vitro, 200 μM agonist) of 14.8 ± 4.3% and an activity at 100 µM (hippocampal astrocytes [2]; Rattus norvegicus, Astrocyte, 480 h, cells P16, 20 days in vitro, 10 μM agonist) of 32.5 ± 4.7%. The activity at 100 µM (hippocampal astrocytes [2]; Rattus norvegicus, Astrocyte, 528 h, cells P2, 22 days in vitro, 100 μM agonist) was 73.4 ± 2.9%, the activity at 100 µM (hippocampal astrocytes [2]; Rattus norvegicus, Astrocyte, 528 h, cells P13, 22 days in vitro, 100 μM agonist) was 34.1 ± 5.6% and the activity at 100 µM (hippocampal astrocytes [2]; Rattus norvegicus, Astrocyte, 552 h, cells P9, 23 days in vitro, 100 μM agonist) was 45.8 ± 11.9%. The activity at 100 µM (hippocampal astrocytes [2]; Rattus norvegicus, Astrocyte, cells P2, 30 days in vitro, 100 μM agonist) was 66.9 ± 9.9%, the activity at 100 µM (hippocampal astrocytes [2]; Rattus norvegicus, Astrocyte, cells P9, 36 days in vitro, 100 μM agonist) was 66.5 ± 6.29% and the activity at 100 µM (hippocampal astrocytes [2]; Rattus norvegicus, Astrocyte, cells P10, 32 days in vitro, 250 μM agonist) was 24.1 ± 7.8%. For the same molecule, the activity at 100 µM (hippocampal astrocytes [2]; Rattus norvegicus, Astrocyte, cells P22, 40 days in vitro, 250 μM agonist) was 29 ± 5.4%, the EC50 (hippocampal astrocytes [2]; Rattus norvegicus, Astrocyte, 24 hours treatment, dose-effect curve, read-out: EC50, reduction of glutamate release) was 2 to 5 µM and the “effect on [Glu]o / glutamate release” value (hippocampal astrocytes [2]; cells treated for 24 hours, then MEM) was “reduce [Glu]o in a dose-dependent manner”. It also gave an activation at 500 µM (hippocampal astrocytes [3]) of 31 ± 2.7% and an activity at 1000 µM (hippocampal astrocytes [5]) of 85.2 ± 5.1%.

Reference: US6013672A, “Agonists of metabotropic glutamate receptors and uses thereof” (UAB Research Foundation, priority 1997, dated 2000)
